The results in this text go back to patent US11884675B2, “Heterocyclic compounds as triggering receptor expressed on myeloid cells 2 agonists and methods of use” (AMGEN INC., priority 2020, dated 2024).

The structures appear in SMILES notation.

This assay deals with hTREM2 (Homo sapiens, UniProt Q9NZC2). In words: TREM2 activity by cellular Syk phosphorylation (AlphaScreen/AlphaLISA) in TREM2/DAP12-HEK cells, used for Examples 1-305. It counts as cell-based. Further details: expressed in transfected cells. The settings on record: HEK293 Cells. In a few lines: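 Single-cell-cloned HEK293 cells overexpressing TREM2 and DAP12, seeded 20 h, exposed to test articles (1% final DMSO) for 45 min at room temperature. Lysates read for phospho-Syk (Tyr525/526) vs total Syk by AlphaScreen. Signal normalised as percent of control between isotype IgG and 100 nM anti-TREM2 antibody; 4-parameter logistic fit.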
Chain of hTREM2 (Q9NZC2 19-230): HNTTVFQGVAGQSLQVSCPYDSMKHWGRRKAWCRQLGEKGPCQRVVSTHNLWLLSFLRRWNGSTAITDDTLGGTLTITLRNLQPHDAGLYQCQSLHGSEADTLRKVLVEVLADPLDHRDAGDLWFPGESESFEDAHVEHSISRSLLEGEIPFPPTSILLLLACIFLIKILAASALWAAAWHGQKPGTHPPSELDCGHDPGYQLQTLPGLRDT
Chain of hTREM2 (O43914 22-113 partner): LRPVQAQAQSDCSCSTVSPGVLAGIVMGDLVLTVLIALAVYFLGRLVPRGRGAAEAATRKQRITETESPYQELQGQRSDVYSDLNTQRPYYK

On to `Cc1ccc(-c2cc([C@@H]3CCO[C@H](c4cnn(C)c4)C3)nc3nc(C)c(C)nc23)c(F)c1` (single isomer, unassigned) [Example 189], for which the 50% effective concentration (EC50) is 0.5 to 3 µM; the “hTREM2 Emax” value was “+++ (Emax>150 and ≤250)”.

Consider `Cc1cc([C@@H]2CN(c3cc4nc(C)ccc4c(-c4ccc(Cl)cc4F)n3)CCO2)ccn1` [Example 240, (R)-4-(5-(4-chloro-2-fluorophenyl)-2-methyl-1,6-naphthyridin-7-yl)-2-(2-methylpyridin-4-yl)morpholine], for which the EC50 lay in the range of 3 to 100 µM and the “hTREM2 Emax” value is “++++ (Emax>250)”.

Regarding `Cc1cnc2c(-c3ccc(F)cc3F)nc(N3CCO[C@@H](c4cnn(C5CC5)c4)C3)nc2n1` [Example 7, 2-((2S)-2-(1-cyclopropyl-1H-pyrazol-4-yl)-4-morpholinyl)-4-(2,4-difluorophenyl)-7-methylpteridine], the EC50 was not above 0.05 µM; the “hTREM2 Emax” value was “+++ (Emax>150 and ≤250)”. On to `Cc1cnc2c(-c3ccc(Cl)cc3F)nc([C@H]3CCO[C@@H](c4cnc(C)nc4)C3)nc2n1` (single isomer, unassigned) [Example 173], for which the EC50 is not above 0.05 µM; the “hTREM2 Emax” value is “+++ (Emax>150 and ≤250)”. For `Cc1cnc2c(-c3ccc(Cl)cc3F)cc([C@H]3CCO[C@@H](c4cnn(C)c4)C3)nc2n1` (single isomer, unassigned) [Example 185], the half-maximal effective concentration (EC50) fell in the range of 0.05 to 0.5 µM; the “hTREM2 Emax” value was “+++ (Emax>150 and ≤250)”.

`Cc1cc([C@H]2C[C@@H](c3nc(-c4ccc(F)cc4F)c4nc(C)c(C)nc4n3)CCO2)ccn1` (single isomer, unassigned) [Example 211]: the EC50 is not above 0.05 µM and the “hTREM2 Emax” value is “++++ (Emax>250)”.

As for `Cc1nc2nc(N3CCO[C@@H](c4cnn(C)c4)C3)nc(N3CCC(F)(F)CC3)c2nc1C` [Example 66, 4-(4,4-difluoro-1-piperidinyl)-6,7-dimethyl-2-((2S)-2-(1-methyl-1H-pyrazol-4-yl)-4-morpholinyl)pteridine], the EC50 is 0.5 to 3 µM. As to `Cc1nc2nc(N3CCO[C@@H](c4cnn(C)c4)C3)nc(C3CCCC3)c2nc1C` [Example 140, 4-cyclopentyl-6,7-dimethyl-2-((2S)-2-(1-methyl-1H-pyrazol-4-yl)-4-morpholinyl)pteridine], the EC50 is 0.05 to 0.5 µM; the “hTREM2 Emax” value is “++ (Emax>100 and ≤150)”. Take `Cc1nc2nc(N3CCO[C@@H](c4cnn(C)c4)C3)nc(-c3ccc(F)cn3)c2nc1C` [Example 292, (S)-4-(4-(5-fluoropyridin-2-yl)-6,7-dimethylpteridin-2-yl)-2-(1-methyl-1H-pyrazol-4-yl)morpholine]: the EC50 lay within 0.5 to 3 µM; the “hTREM2 Emax” value is “+++ (Emax>150 and ≤250)”. For the compound `Cc1cnc2c(-c3ccc(Cl)cc3F)nc([C@H]3CCO[C@@H](c4cnn(C)c4)C3)cc2n1` (single isomer, unassigned) [Example 191], the concentration giving a half-maximal response (EC50) fell in the range of 0.05 to 0.5 µM and the “hTREM2 Emax” value is “++++ (Emax>250)”. Regarding `Cc1cc([C@H]2CN(c3nc(C45CC(C(F)(F)F)(C4)C5)c4ncc(C)nc4n3)CCO2)ccn1` [Example 232, (S)-4-(7-methyl-4-(3-(trifluoromethyl)bicyclo[1.1.1]pentan-1-yl)pteridin-2-yl)-2-(2-methylpyridin-4-yl) morpholine], the half-maximal effective concentration (EC50) was not above 0.05 µM; the “hTREM2 Emax” value was “++ (Emax>100 and ≤150)”.

For the compound `Cc1nc2nc(N3CCO[C@@H](c4cnn(C)c4)C3)nc([C@H]3CC[C@@H](C(F)(F)F)CC3)c2nc1C` [Example 131, 6,7-dimethyl-2-((2S)-2-(1-methyl-1H-pyrazol-4-yl)-4-morpholinyl)-4-(cis-4-(trifluoromethyl)cyclohexyl)pteridine], the EC50 was 0.05 to 0.5 µM; the “hTREM2 Emax” value is “+++ (Emax>150 and ≤250)”. With `Cc1ccc2c(-c3ccc(F)cc3F)nc(N3CCO[C@@H](c4cnn(C)c4)C3)nc2n1` [Example 91, 4-(2,4-difluorophenyl)-7-methyl-2-((2S)-2-(1-methyl-1H-pyrazol-4-yl)-4-morpholinyl)pyrido[2,3-d]pyrimidine], the half-maximal effective concentration (EC50) was in the range of 0.05 to 0.5 µM; the “hTREM2 Emax” value was “+++ (Emax>150 and ≤250)”. With `Cc1nc2cc(N3CCO[C@@H](c4cnn(C5CC5)c4)C3)nc([C@H]3C[C@H](C(F)(F)F)C3)c2nc1C` [Example 81, 7-((2S)-2-(1-cyclopropyl-1H-pyrazol-4-yl)-4-morpholinyl)-2,3-dimethyl-5-(trans-3-(trifluoromethyl)cyclobutyl)pyrido[3,4-b]pyrazine], the 50% effective concentration (EC50) was in the range of 0.05 to 0.5 µM; the “hTREM2 Emax” value was “++ (Emax>100 and ≤150)”. Take `Cc1ccc(-c2nc([C@H]3CCO[C@@H](c4cnn(C)c4)C3)nc3nc(C)c(C)nc23)c(F)c1` (single isomer, unassigned) [Example 183]: the EC50 was not above 0.05 µM and the “hTREM2 Emax” value is on record as “++++ (Emax>250)”. Regarding `Cc1cc2c(-c3ccc(Cl)cc3F)nc([C@@H]3CCO[C@@H](c4cnn(C)c4)C3)nc2nc1C` (single isomer, unassigned) [Example 225], the concentration for a half-maximal effect (EC50) lay in the range of 0.05 to 0.5 µM; the “hTREM2 Emax” value is “+++ (Emax>150 and ≤250)”.

For the compound `Cc1nc2nc([C@H]3CCO[C@@H](c4cnn(C5CC5)c4)C3)nc(-c3ccc(F)cc3F)c2nc1C` [Example 305, 2-((2R,4S)-2-(1-cyclopropyl-1H-pyrazol-4-yl)tetrahydro-2H-pyran-4-yl)-4-(2,4-difluorophenyl)-6,7-dimethylpteridine], the EC50 lay in the range of 0.05 to 0.5 µM; the “hTREM2 Emax” value was “+++ (Emax>150 and ≤250)”.

Take `Cc1nc2nc(N3CCO[C@@H](c4cnn(C)c4)C3)nc(C3CCC4(CC3)CC4)c2nc1C` [Example 137, 6,7-dimethyl-2-((2S)-2-(1-methyl-1H-pyrazol-4-yl)-4-morpholinyl)-4-(spiro[2.5]octan-6-yl)pteridine]: the EC50 is not above 0.05 µM; the “hTREM2 Emax” value is “+++ (Emax>150 and ≤250)”. The compound `Cc1nc2cc([C@@H]3CCO[C@H](c4cnn(C5CC5)c4)C3)nc(-c3ccc(Cl)cc3F)c2nc1C` [Example 297, 5-(4-chloro-2-fluorophenyl)-7-((2S,4R)-2-(1-cyclopropyl-1H-pyrazol-4-yl)tetrahydro-2H-pyran-4-yl)-2,3-dimethylpyrido[3,4-b]pyrazine] came in with an EC50 of 3 to 100 µM. Consider `Cc1nc2nc([C@H]3CCO[C@@H](c4cnn(C)c4)C3)nc([C@H]3C[C@H](C(F)(F)F)C3)c2nc1C` (single isomer, unassigned) [Example 205], for which the EC50 is 0.05 to 0.5 µM; the “hTREM2 Emax” value was “+++ (Emax>150 and ≤250)”. Regarding `Cc1nc2nc(N3CCO[C@@H](c4cnn(C)c4)C3)nc(C34CC(C(F)(F)F)(C3)C4)c2nc1C` [Example 63, 6,7-dimethyl-2-((2S)-2-(1-methyl-1H-pyrazol-4-yl)-4-morpholinyl)-4-(3-(trifluoromethyl)bicyclo[1.1.1]pentan-1-yl)pteridine], the EC50 is not above 0.05 µM; the “hTREM2 Emax” value is “+++ (Emax>150 and ≤250)”. With `Cc1cc([C@H]2CN(c3nc(-c4ccc(C(F)(F)F)nc4)c4nc(C)c(C)nc4n3)CCO2)ccn1` [Example 293, (S)-4-(6,7-dimethyl-4-(6-(trifluoromethyl)pyridin-3-yl)pteridin-2-yl)-2-(2-methylpyridin-4-yl)morpholine], the “hTREM2 Emax” value was “+++ (Emax>150 and ≤250)”.

In the case of `Cc1ncc([C@H]2CN(c3nc(-c4ccc(Cl)cc4F)c4nc(C)c(C)nc4n3)CCO2)cn1` (single isomer, unassigned) [Example 24], the EC50 was 0.05 to 0.5 µM and the “hTREM2 Emax” value is on record as “++++ (Emax>250)”. For the compound `Cc1nc2nc(N3CCO[C@@H](c4cnn(C5CC5)c4)C3)nc([C@H]3C[C@H](C(F)(F)F)C3)c2nc1C` [Example 50, 2-((2S)-2-(1-cyclopropyl-1H-pyrazol-4-yl)-4-morpholinyl)-6,7-dimethyl-4-(trans-3-(trifluoromethyl)cyclobutyl)pteridine], the half-maximal effective concentration (EC50) is not above 0.05 µM; the “hTREM2 Emax” value was “+++ (Emax>150 and ≤250)”.

Consider `Cc1cnc2c(-c3ccc(Cl)cc3F)nc([C@H]3CCO[C@@H](c4cnn(C5CC5)c4)C3)nc2n1` (single isomer, unassigned) [Example 170], for which the concentration for a half-maximal effect (EC50) was not above 0.05 µM and the “hTREM2 Emax” value is “++++ (Emax>250)”. `Cc1cc([C@H]2CN(c3nc(C4CC5(C4)CC(F)(F)C5)c4nc(C)c(C)nc4n3)CCO2)ccn1` [Example 56, 4-(6,6-difluorospiro[3.3]heptan-2-yl)-6,7-dimethyl-2-((2S)-2-(2-methyl-4-pyridinyl)-4-morpholinyl)pteridine]: the concentration for a half-maximal effect (EC50) is not above 0.05 µM; the “hTREM2 Emax” value is “++ (Emax>100 and ≤150)”. In the case of `Cc1cc([C@H]2CN(c3nc(-c4ccc(Cl)cc4F)c4ncc(C)nc4n3)CCO2)ccn1` [Example 3, 4-(4-chloro-2-fluorophenyl)-7-methyl-2-((2S)-2-(2-methyl-4-pyridinyl)-4-morpholinyl)pteridine], the concentration giving a half-maximal response (EC50) was not above 0.05 µM; the “hTREM2 Emax” value is “+++ (Emax>150 and ≤250)”.

On to `Cc1cc([C@H]2C[C@@H](c3cc4nc(C)c(C)nc4c(-c4ccc(Cl)cc4F)n3)CCO2)ccn1` (single isomer, unassigned) [Example 218], for which the concentration giving a half-maximal response (EC50) is not above 0.05 µM; the “hTREM2 Emax” value is “+++ (Emax>150 and ≤250)”.

`Cc1nc2cc([C@@H]3CCO[C@H](c4cnn(C)c4)C3)nc(-c3ccc(Cl)cc3F)c2nc1C` (single isomer, unassigned) [Example 193]: the EC50 is 0.05 to 0.5 µM and the “hTREM2 Emax” value is “++++ (Emax>250)”.

On to `Cc1cc([C@H]2C[C@H](c3nc(-c4ccc(F)cc4F)c4cc(C)c(C)nc4n3)CCO2)ccn1` (single isomer, unassigned) [Example 228], for which the EC50 is not above 0.05 µM; the “hTREM2 Emax” value is “+++ (Emax>150 and ≤250)”. Turning to `COC1CN(c2nc(N3CCO[C@@H](c4cnn(C)c4)C3)nc3nc(C)c(C)nc23)C1` [Example 28, 4-(3-methoxy-1-azetidinyl)-6,7-dimethyl-2-((2S)-2-(1-methyl-1H-pyrazol-4-yl)-4-morpholinyl)pteridine], the EC50 was in the range of 0.5 to 3 µM; the “hTREM2 Emax” value is “+++ (Emax>150 and ≤250)”.

One may read the EC50 as the concentration needed to bring the measured effect to its halfway point. Read a low EC50 as an effect from little substance.
